Data: patent publication US11406590B2, “Essential oil emulsion nostril treatment composition” (King Abdulaziz University, priority 2020, dated 2022)

System: Salmonella enterica subsp. Enterica serovar typhimurium (ATCC 29629, TA 1535)
Experiment: Ames test of liposomal preparation
Assay type: cell-based
Details: 20 and 200 nmol
Experimental: To evaluate the safety of the liposomal preparation described in Example 1, the Ames test is performed according to the procedure described by, and incorporated by reference to, Ames et al, Carcinogens are mutagens: their detection and classification. Environ Health Perspect. 1973 December; 6:115-8; Mortelmans and Zeiger, The Ames Salmonella/microsome mutagenicity assay. Mutat Res. 2000 Nov. 20; 455(1-2):29-60.
Briefly, the test organism Salmonella enterica subsp. Enterica serovar typhimurium (ATCC® 29629-Strain Designations: TA 1535), an auxotrophic mutant, is provided by ATCC, Manassas, USA. This auxotrophic isolate has a mutation in its DNA which prevents it from producing histidine and thus requires histidine for its growth.
Potentially mutagenic substances are identified by contacting them with this auxotrophic mutant and measuring the frequency of mutations that restore the ability of this auxotroph to grown a medium not containing histidine. […]
A degree of mutagenicity of the liposome preparation is determined by comparison of the number of colonies appearing on the negative and positive controls and the number of colonies on the solid medium containing different concentrations of the liposome preparation containing the essential oil-in-water emulsion of Example 1.

CC[n+]1c(-c2ccccc2)c2cc(N)ccc2c2ccc(N)cc21 [ethidium bromide]
Colony counts on positive control plates: significant increase
